We go through 2 compounds from PMC11642940, “A New Demand for Improved Selectivity and Potency of Cyanine Dyes as Antiproliferative Agents Against Colorectal Cancer Cells” (Molecules, 2024).

Data set [1] is described as follows: Photostability assay (absorbance decay under white light). Format: physicochemical. Particulars: 10 µM in PBS, after 30 min white light irradiation; 436 nm for 5, 439 nm for 10. The method, then:
To further explore this, the photostability of these dyes was tested. […] A gradual linear degradation continued for at least 120 min. This degradation likely explains the decreased cytotoxicity observed in the photocytotoxicity assay.
In a 96-well plate, 100 µL of dyes 5 and 10 at a concentration of 10 µM, prepared from 10 mM DMSO stock solution diluted in PBS, was added at each well. The photostability assay was performed by irradiating the as previously described for photocytotoxicity evaluation, repeated several times up to 120 min. Spectrophotometric readings were taken over the maximum absorption wavelength of each dye (436 nm for 5 and 439 nm for 10). Two independent experiments were performed in quadruplicate, and the obtained absorbance values were normalized.

Data set [2] has as its target T1, topoisomerase II (Topo II) (Homo sapiens, UniProt P11388).
T1 construct: purchased TopoGEN Inc. (Buena Vista, CO, USA) 1009-1
In words: Topoisomerase II inhibitory assay (pRYG DNA relaxation, agarose gel). Format: biochemical. To be noted: 50 µM, 5.0 units Topo II, 250.0 ng pRYG DNA, mean ± SD of two assays.
Description: To do so, the impact of cyanines on Topo II activity was assessed using a pRYG DNA substrate in the presence and absence of the dyes. This was monitored via a Topo II drug screening kit followed by agarose gel electrophoresis. […] All samples applied to the agarose gel contained 5.0 units of Topo II and 250.0 ng of pRYG DNA as the substrate. Linear pRYG DNA (Lane DNA marker) served as the reference control for the DNA band positions, and 50 µM VP-16 (Lane 3) was used as a positive control. […]
The formation of relaxed DNA products, indicating Topo II activity, is visible in Lane 1 (incubation of pRYG DNA with Topo II) of Figure 8A. […] The intensity of the relaxed DNA bands from two independent experiments was quantified for all samples and normalized to the Topo II activity in the absence of inhibitors (No drug sample, Lane 1) using Image Lab, Version 6.1 (Figure 8B). […]
Cyanine stock solutions in DMSO were further diluted with Tris-HCl (DMSO:Tris-HCl–1:9) to the concentrations desired for assays. […] Electrophoresis was run at 110 V for 40 min and analyzed under ultraviolet (UV) light using a FireReader Imaging System (UVITEC, Cambridge, UK). Band intensities were measured using the software Image Lab, Version 6.1 (BioRad Laboratories, Hercules, CA, USA). […]

Data set [3] relates to Caco-2 cells. In words: Fluorescence microscopy (cell penetration, intracellular localization). Format: cell-based, human. Particulars: Caco-2, 1 µM, 20 h, Hoescht 33342 counterstain. The method, then:
The cells were incubated with the dyes for 20 h, followed by fixation and staining with Hoescht 33342, a commonly used cell-permeant nucleic acid stain.
Fluorescence microscopy was used to confirm whether the compounds under study cross the cell membrane, and to understand where they are located within the cell (nucleus and/or cytoplasm). To this end, the procedure previously described in Lima et al. was followed. Hoescht 33342 was used as a specific marker. Cells were seeded in 24-well culture plates containing sterile circular coverslips of 15 mm diameter. After 48 h for cell adhesion, they were incubated with the compounds for 20 h. After this incubation period, the cells were washed three times with PBS and the fixation process was carried out. To do this, the contents of the wells were removed, and a 4% formalin solution was added until the wells were covered, followed by an incubation at room temperature for 15 min. Then, the washing process was repeated three times with PBS, and the cells were then incubated with a solution of Hoescht 33342 (1:500) for 10 min, in the dark and at room temperature. Subsequently, the wells were washed again with PBS and the slides were mounted with permanent mounting medium (Dako) and left to dry in a cool and dry place for 24 h. […]

The test system of data set [4] is Caco-2 cells. In words: Caco-2 morphological analysis (optical microscopy). To be noted: 72 h.
Description: Sorbitol and 5-FU were used as positive controls, while untreated cells served as the negative control.
Caco-2 cells near confluency were trypsinized, counted, and then seeded at 3 × 10^4 cells/mL (3 mL) in 35 mm cell culture dishes previously treated for tissue culture. After cell adherence (48 h), they were incubated with solutions under study for 72 h in the absence of light. The cellular morphology was verified every 24 h using a CKX41 SF inverted microscope (Olympus, Tokyo, Japan) with 10, 20, or 40× objectives. A DC6 V digital camera (Olympus, Tokyo, Japan) coupled to the microscope was used to capture cell imaging. The morphology of cells in the presence or absence of treatments was compared.

T1 sequence (P11388 whole entry): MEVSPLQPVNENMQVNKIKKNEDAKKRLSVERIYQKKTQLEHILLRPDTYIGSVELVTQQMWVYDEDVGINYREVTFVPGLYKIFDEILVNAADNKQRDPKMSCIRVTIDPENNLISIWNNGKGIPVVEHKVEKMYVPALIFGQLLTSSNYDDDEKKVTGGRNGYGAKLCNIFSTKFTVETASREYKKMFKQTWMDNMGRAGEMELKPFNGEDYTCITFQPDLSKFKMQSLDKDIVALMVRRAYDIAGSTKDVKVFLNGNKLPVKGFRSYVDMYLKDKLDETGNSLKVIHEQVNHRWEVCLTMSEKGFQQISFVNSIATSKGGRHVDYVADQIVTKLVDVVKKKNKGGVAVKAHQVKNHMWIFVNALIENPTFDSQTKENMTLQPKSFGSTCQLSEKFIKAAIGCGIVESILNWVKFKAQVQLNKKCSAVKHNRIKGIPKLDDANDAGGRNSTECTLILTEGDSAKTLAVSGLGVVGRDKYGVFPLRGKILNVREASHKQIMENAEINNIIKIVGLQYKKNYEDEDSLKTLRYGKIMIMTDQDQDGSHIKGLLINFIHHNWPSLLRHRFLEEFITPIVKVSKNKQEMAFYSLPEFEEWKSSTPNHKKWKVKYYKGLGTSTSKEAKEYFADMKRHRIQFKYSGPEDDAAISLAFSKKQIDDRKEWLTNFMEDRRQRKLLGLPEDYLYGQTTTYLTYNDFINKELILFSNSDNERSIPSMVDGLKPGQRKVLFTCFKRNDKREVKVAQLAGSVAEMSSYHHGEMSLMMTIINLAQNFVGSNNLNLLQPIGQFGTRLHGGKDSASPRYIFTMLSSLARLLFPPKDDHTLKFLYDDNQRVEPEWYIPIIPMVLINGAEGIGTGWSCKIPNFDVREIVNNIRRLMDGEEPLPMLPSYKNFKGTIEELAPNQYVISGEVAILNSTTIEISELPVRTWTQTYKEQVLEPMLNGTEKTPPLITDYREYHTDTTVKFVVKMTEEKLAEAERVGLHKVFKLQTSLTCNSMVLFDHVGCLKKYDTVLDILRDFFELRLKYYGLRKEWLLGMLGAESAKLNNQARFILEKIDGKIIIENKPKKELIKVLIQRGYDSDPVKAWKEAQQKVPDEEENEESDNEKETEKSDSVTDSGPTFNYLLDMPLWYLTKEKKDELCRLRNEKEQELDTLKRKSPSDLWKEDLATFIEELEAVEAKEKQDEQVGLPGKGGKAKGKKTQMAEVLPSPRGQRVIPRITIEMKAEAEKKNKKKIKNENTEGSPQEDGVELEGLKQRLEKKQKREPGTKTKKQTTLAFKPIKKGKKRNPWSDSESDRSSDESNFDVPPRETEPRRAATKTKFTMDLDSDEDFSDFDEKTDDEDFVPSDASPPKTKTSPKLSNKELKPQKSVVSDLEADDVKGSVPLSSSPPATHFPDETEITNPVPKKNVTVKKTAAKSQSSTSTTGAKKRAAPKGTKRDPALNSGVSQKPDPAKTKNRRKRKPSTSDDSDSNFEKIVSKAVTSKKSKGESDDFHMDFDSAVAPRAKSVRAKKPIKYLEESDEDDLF

As for `CN1C(=Cc2oc3ccccc3[n+]2C)C=Cc2ccccc21.Cc1ccc(S(=O)(=O)[O-])cc1` [Dye 5, 3-Methyl-2-((1-methylquinolin-2(1H)-ylidene)methyl)benzo[d]oxazol-3-ium 4-methylbenzenesulfonate], the “reduction in absorbance at maximum wavelength” value in data set [1] was 3.7%. The “relative intensity of relaxed DNA band (normalized to No drug sample)” value in data set [2] worked out at 0.31 ± 0.063. Besides, the “cell membrane crossing, intracellular localization and fluorescence” value with Caco-2 cells [3] is listed as “stain a specific organelle within the nucleoplasm but does not localize in the DNA”. The “morphological changes of Caco-2 cells” value in the data set with Caco-2 cells [4] (1 µM) is on record as “a few apoptotic bodies”.
As to `CCN1C(=Cc2sc3cc([N+](=O)[O-])ccc3[n+]2CC)Sc2ccccc21.Cc1ccc(S(=O)(=O)[O-])cc1` [Dye 10, 3-Ethyl-2-((3-ethylbenzo[d]thiazol-2(3H)-ylidene)methyl)-6-nitrobenzo[d]thiazol-3-ium 4-methylbenzenesulfonate], the “reduction in absorbance at maximum wavelength” value in data set [1] was found to be 2.5%. In addition, the “relative intensity of relaxed DNA band (normalized to No drug sample)” value in data set [2] was 0.65 ± 0.024. The “cell membrane crossing, intracellular localization and fluorescence” value in the data set with Caco-2 cells [3] was “significantly lower fluorescence intensity compared to dye 5”. Further, in the data set on Caco-2 cells [4] (10 µM), the “morphological changes of Caco-2 cells” value is recorded as “noticeable reduction in the size of Caco-2 cells”.
